The text below walks through data of patent US9840483B2, “Radiomitigating pharmaceutical formulations” (The Regents of the University of California, priority 2013, dated 2017).

The subject of one data set is TNF-α mRNA. In words: Cytokine mRNA expression in LPS-stimulated bone marrow-derived macrophages (qPCR). The conditions noted are these: added to bone marrow-derived macrophages 1 hr after LPS, RT-PCR. In kind it is cell-based, murine. How it is done: Additionally, bone marrow-derived macrophages (BMDMs) were derived by 7 days culture of marrow cells in medium containing 10% FBS and CSF-1 conditioned medium. The serum concentration was reduced to 2% FBS 16 h before stimulation with LPS for 30 min, treatment with drug and incubation for another 3.5 h (4 h total with LPS). Total cellular RNA was isolated by trizol and cDNA synthesized using iScript from BioRad. Gene expression was measured by qPCR and analyzed using the standard curve method, normalized to L32.
A general note: Real-time PCR tracks product formation cycle by cycle.

The test system of data set [1] is induced peritoneal macrophages. The data set can be described thus: Activation status of induced peritoneal macrophages after subcutaneous treatment of control or WBI mice. In kind it is in vivo. Particulars: for TNF-α production of induced peritoneal cells in response to LPS after treatment in vivo: compound given subcutaneously, macrophages harvested day 4, incubated 24 h with LPS. How it is done: To determine if compound 2 (5355512), injected subcutaneously would affect the activation status of induced peritoneal macrophages, compound 2 (5355512) was given subcutaneously to control or WBI (5 Gy) and peritoneal macrophages harvested at day 4 as before. Cells from these groups of mice were incubated for 24 h with LPS or LPS then 512 (See FIG. 12). […] However, this “priming” effect was less when WBI and Compound 2 (5355512) were combined in vivo.

Another data set relates to C57Bl/6 mice. The data set can be described thus: Localized abdominal irradiation survival. In kind it is in vivo. The conditions noted are these: 16 and 18 Gy abdominally.
The subject of data set [2] is Til-1 murine lymphocyte cells. In words: Mitigation of radiation-induced apoptosis in vitro: viability of irradiated Til-1 cells (ATPlite) screen. It is filed as cell-based. Particulars: Mus musculus, light or radiation study, added 1 hour after 2 Gy, viability 24 h after radiation, relative to control irradiated value (100%), read-out: In Vitro (Mitigation cell viability %). As to the method:
The ability of compounds from Example 1 to mitigate radiation-induced apoptosis in vitro relative to control values (100%) is shown in FIG. 1. Briefly, 100,000 small-molecules were screened at 10 μM final concentration in 1% dimethylsulfoxide (DMSO) using the viability of a murine lymphocyte line as a readout (Mitigation cell viability %). Ten thousand Til-1 murine lymphocyte cells were dispensed into each well of 384-well plates using a Multidrop 384 (Thermo Scientific, Waltham, Mass.) The Til-1 cells were irradiated at the dose of 2 Gy. After 1 hour, the small-molecules were added. Twenty-four hours after the radiation, cell viability was assayed by luminesce-based measurement of ATP production (ATPlite, Perkin-Elmer, Waltham, Mass.) with a SpectraMax M5 microplate reader (Molecular Devices, Sunnyvale, Calif.). The Z′ factor for the assay was >0.5. See Zhang, J. H., Chung, T. D., Oldenburg, K. R. “A Simple Statistical Parameter for Use in Evaluation and Validation of High Throughput Screening Assays,” J Biomol Screen 4:67, 1999. A positive readout was >130% of the control irradiated value.

Another data set is described as follows: Solubility. It is filed as physicochemical.
In the next data set the test system is myeloid suppressor cells. In words: In vivo anti-inflammatory activity, generation of myeloid suppressor cells. Particulars: data not shown.
A further data set relates to TNF-α production. In words: TNF-α production by LPS-stimulated peritoneal macrophages (ELISA). It is filed as cell-based, murine. How it is done:
NPSPs were tested for their anti-inflammatory ability using murine macrophages. […] Briefly, peritoneal macrophages (PMs) were induced by intraperitoneal, injection of 150 μg MIS416 (Innate Immunotherapeutics, NZ) and harvested on day 4 by peritoneal wash out with PBS. Culture supernatants were harvested at 24 hrs and cytokines tested by ELISA (BD Biosciences, SD).

Data set [3] has as its system endogenous colony forming units in the spleens. In words: Endogenous colony forming units in spleens after WBI. It is filed as in vivo, mice. The conditions noted are these: for Average endogenous CFU per spleen / Total endogenous CFU in spleens: 10 days after WBI at 6.5 Gy, 7.0 Gy, and 7.5 Gy. An excerpt: For example, Compound 2 (5355512) increased the total endogenous CFU in spleens and average endogenous CFU per spleen, at 10 days after whole body irradiation (WBI) at varying doses (e.g. 6.5 Gy, 7.0 Gy, and 7.5 Gy). (See FIG. 13).

The test system of data set [4] is Lewis lung (LLC) tumor lung colonies. In words: Lewis lung (LLC) model of artificial metastasis. It is filed as in vivo, mice. As to the method:
The Lewis lung (LLC) model of artificial metastasis was used to test the effects of the drug on the growth of tumor lung colonies in vivo and on radiation response. This was chosen because it is easy to see any drug effects on growth promotion and radioprotection in multiple tumors simultaneously. Specifically, C57Bl/6 mice and C3H mice were injected intravenously with 5×10^4 tumor cells. Subcutaneous injections of compound 2 (5355512) were started on day 4 when the tumors were already established in the lung. A daily dose of 20 mg/kg for 5 days was used to bias the experiment in favor of any tumor growth promotion. Local thoracic irradiation (LTI) was started on day 5 with 4 Gy daily doses for 3 days. This is higher than conventional 2 Gy to compensate for the rapid growth of murine tumors, but is still well within the higher ranges used clinically in hypofractionated exposures. The colonies were counted on day 14. […] LTI alone decreased the number of colonies by 40%.

The test system of the next data set is C3H mice and C57 mice. In words: Local thoracic irradiation, radiation pneumonitis and fibrosis. It is filed as in vivo. Particulars: local thoracic irradiation 14 and 18 Gy.

Each structure is given as a SMILES string. Converted amounts (≈) assume the structure as drawn.

For the compound `O=[N+]([O-])c1ccc(S(=O)(=O)N2CCN(c3ccccc3)CC2)cc1` [Compound 2, 1-[(4-nitrobenzene)sulfonyl]-4-phenylpiperazine], the “Expression of TNF-α mRNA and other cytokines” value with TNF-α mRNA was “inhibit expression of TNF-α mRNA, and other cytokines”. Besides, the “Priming effect when WBI and compound combined in vivo” value in data set [1] (WBI (5 Gy) plus compound subcutaneously) is recorded as “less”. The figures for the “TNF-α production of induced peritoneal cells in response to LPS after treatment in vivo” value in [1] and in data set [1] (listed as compound 2) were ““primed” induced peritoneal cells to produce TNF-α” and “induces peritoneal macrophages to produce TNF-α”, respectively. Further, the “TNF-α production after addition of compound in vitro” value in data set [1] (harvested cells incubated with LPS then compound) is listed as “blunted TNF-α production”. Moreover, in the data set on C57Bl/6 mice, the “Mitigation of abdominal radiation” value was “mitigation of abdominal radiation”. Also, the viability – broadly, a read-out of living cells in per cent, often relative to untreated cells – at 10 µM in data set [2] was 182%. In the data set “Solubility”, the concentration in solution (solubility) came to 66.1 µM (≈ 23 µg/mL). Moreover, the “Anti-inflammatory activity in vivo” value in the data set on myeloid suppressor cells is “showed anti-inflammatory activity”. In the data set with TNF-α production (added to stimulated peritoneal macrophages 1 hr after LPS, supernatants at 24 hrs, ELISA), the TNF-α production result is given as “inhibit TNF-α production”. The “Anti-inflammatory activity: LPS-induced production of tumor necrosis factor and other inflammatory cytokines” value in the data set with TNF-α production (murine macrophages) is listed as “showed anti-inflammatory activity”. The results for the “Average endogenous CFU per spleen” value in [3] and in data set [3] (listed as compound 2) were “increased” and “increases”, respectively. Further, the “Total endogenous CFU in spleens” value is given as “increased” in data set [3] and “increases” in data set [3] (listed as compound 2). For the same compound, the “Number of endogenous colony forming units in the spleens” value in data set [3] (mice that had received LD70/30 radiation doses) was “increased”. In [4] (20 mg/kg daily for 5 days plus local thoracic irradiation 4 Gy daily for 3 days from day 5), the “Number of colonies with LTI plus drug versus LTI alone” value is “not further decreased”. In addition, in [4] (20 mg/kg subcutaneously daily for 5 days from day 4, colonies counted day 14, P<0.05), the “Decrease in number of lung tumor colonies” value is 20%. Also, the “Size of lung tumor colonies” value in data set [4] (20 mg/kg subcutaneously daily for 5 days from day 4, day 14) is “smaller in size”. Further, in the data set on C3H mice and C57 mice, the “Survival post thoracic radiation” value was “supported survival of C3H mice and C57 mice to 100 days”.
